Test results from US9266832B2, “Compounds for the treatment of neurodegenerative diseases” (Katholieke Universiteit Levun, priority 2010, dated 2016).

Each molecule was assayed on M17-TAU P301L cells (assay: Tau-induced toxicity experiment: LDH leakage of retinoic acid incubated M17-TAU P301L cells). Details: Homo sapiens, Neuroblastoma cell, 168 h; reduction of LDH activity of retinoic acid incubated M17-TAU P301L neuroblastoma cells, 7 days.
Type: cell-based
From the text: A TAU expression plasmid was constructed by sub-cloning the cDNA of human TAU-P301L (encoding for TAU with proline 301 substituted by a leucine residue) into mammalian expression vector pcDNA3.1 resulting in plasmid pcDNA3.1-TAU P301L. Plasmids pcDNA3.1 and pcDNA3.1-TAU P301L were transfected to human neuroblastoma cells ([…]; ATCC No. CRL-2267) and independent clonal lines with the plasmids stably integrated into the genome were selected. […] Expression of the TAU P301L genes in the cell lines was confirmed by Western analysis.
In degenerated or dead cells lactate dehydrogenase (LDH) is leaked out of the cells into the extracellular environment due to a loss of plasma-membrane integrity. This principle was used to determine cytotoxicity by quantifying the level of leaked LDH into the growth medium.
The detailed method for determining TAU cytotoxicity was as follows: From appropriate precultures of M17-3.1 and M17-TAU(P301L) cells were seeded at 2500 cells/cm2 in Optimem Reduced Serum without phenol red (Gibco, Cat. 31985-047) supplemented with 1% fetal calf serum, 1 mM sodium pyruvate, 1× non-essential amino acids, 500 μg/ml G418 0.5× antibiotic/antimycotic. After 3 h of incubation at 37° C./5% CO2 1 volume of Optimem Reduced Serum (same as described above; except without fetal calf serum) supplemented with 2.5 μM retinoic acid (RA) was added. The cells were further incubated for 7 days. Subsequently, LDH activity was determined using Promega Cytotox 96 Non-Radioactive cytotoxicity assay, (Cat. G1780) according the supplier's instructions.
The M17-TAU P301L cell line made it possible to assess the ability of novel compounds to counteract TAU cytotoxicity. […] These measurements were used to calculate EC50 values of table 2.

Compared with O=C(NCc1c[nH]c2ccc(Cl)cc12)c1ccc(Cc2cc(F)cc(F)c2)cc1 [Cpd073, N-((5-chloro-1H-indol-3-yl)methyl)-4-(3,5-difluorobenzyl)benzamide], N#Cc1cccc(Cc2ccc(C(=O)NCc3c[nH]c4ccc(Cl)cc34)cc2)c1 [Cpd072, N-((5-chloro-1H-indol-3-yl)methyl)-4-(3-cyanobenzyl)benzamide] is 1.8-fold lower in EC50: 242 nM for the first, 132 nM for the second.

First: Cc1ccc(Cc2cccc(C(=O)NCCc3c[nH]c4ccc(Cl)cc34)c2)cc1 [Cpd034, N-(2-(5-chloro-1H-indol-3-yl)ethyl)-3-(4-methylbenzyl)benzamide]
Second: COc1ccc(Cc2cccc(C(=O)NCCc3c[nH]c4ccc(Cl)cc34)c2)cc1 [Cpd057, N-(2-(5-chloro-1H-indol-3-yl)ethyl)-3-(4-methoxybenzyl)benzamide]
The EC50 of the first is 2.4-fold lower: 62 nM for the first, 147 nM for the second. The first is the more potent here.

O=C(NCCc1c[nH]c2ccc(Cl)cc12)c1cccc(Cc2ccccc2)c1 [Cpd010, 3-benzyl-N-(2-(5-chloro-1H-indol-3-yl)ethyl)benzamide] and O=C(NCCc1c[nH]c2ccc(Cl)cc12)c1cccc(Cc2ccoc2)c1 [Cpd083, N-(2-(5-chloro-1H-indol-3-yl)ethyl)-3-(furan-3-ylmethyl)benzamide] are within 1.5-fold of each other in EC50: 78 nM for the first, 56 nM for the second.

COc1cccc(Oc2cccc(C(=O)NCCc3c[nH]c4ccc(Cl)cc34)c2)c1 [Cpd089, N-(2-(5-chloro-1H-indol-3-yl)ethyl)-3-(3-methoxyphenoxy)benzamide] and Cc1cccc(Oc2cccc(C(=O)NCCc3c[nH]c4ccc(Cl)cc34)c2)c1 [Cpd090, N-(2-(5-chloro-1H-indol-3-yl)ethyl)-3-(m-tolyloxy)benzamide] are within 1.5-fold of each other in EC50: 98 nM for the first, 91 nM for the second.

Compared with Cc1ccccc1Cc1ccc(C(=O)NCCc2c[nH]c3ccc(Cl)cc23)cc1 [Cpd028, N-(2-(5-chloro-1H-indol-3-yl)ethyl)-4-(2-methylbenzyl)benzamide], O=C(NCCc1c[nH]c2ccc(Cl)cc12)c1ccc(Cc2ccccc2F)cc1 [Cpd049, N-(2-(5-chloro-1H-indol-3-yl)ethyl)-4-(2-fluorobenzyl)benzamide] is 12-fold lower in EC50: 370 nM for the first, 31 nM for the second.

Compared with N#Cc1cccc(Nc2cccc(C(=O)NCCc3c[nH]c4ccc(Cl)cc34)c2)c1 [Cpd064, N-(2-(5-chloro-1H-indol-3-yl)ethyl)-3-(3-cyanophenylamino)benzamide], N#Cc1ccccc1Cc1ccc(C(=O)NCCc2c[nH]c3ccc(Cl)cc23)cc1 [Cpd059, N-(2-(5-chloro-1H-indol-3-yl)ethyl)-4-(2-cyanobenzyl)benzamide] is 1.8-fold lower in EC50: 122 nM for the first, 68 nM for the second. The second is the more potent here.

Going from O=C(NCCc1c[nH]c2ccc(Cl)cc12)c1ccc(Cc2ccsc2)cc1 [Cpd080, N-(2-(5-chloro-1H-indol-3-yl)ethyl)-4-(thiophen-3-ylmethyl)benzamide] to O=C(NCCc1c[nH]c2ccc(Cl)cc12)c1ccc(Cc2cccs2)cc1 [Cpd079, N-(2-(5-chloro-1H-indol-3-yl)ethyl)-4-(thiophen-2-ylmethyl)benzamide], the EC50 rises from 18 nM to 81 nM (4.5-fold).

First: O=C(NCCc1c[nH]c2ccc(Cl)cc12)c1ccc(Cc2cc(F)ccc2F)cc1 [Cpd102, N-(2-(5-chloro-1H-indol-3-yl)ethyl)-4-(2,5-difluorobenzyl)benzamide]
Second: COc1ccccc1Cc1ccc(C(=O)NCCc2c[nH]c3ccc(Cl)cc23)cc1 [Cpd029, N-(2-(5-chloro-1H-indol-3-yl)ethyl)-4-(2-methoxybenzyl)benzamide]
The EC50 of the first is 1.7-fold lower: 49 nM for the first, 84 nM for the second.

First: O=C(NCCc1c[nH]c2ccc(Cl)cc12)c1ccc(Cn2cccn2)cc1 [Cpd011, 4-((1H-pyrazol-1-yl)methyl)-N-(2-(5-chloro-1H-indol-3-yl)ethyl)benzamide]
Second: O=C(NCCc1c[nH]c2ccc(Cl)cc12)c1ccc(Oc2ccccc2)cc1 [Cpd093, N-(2-(5-chloro-1H-indol-3-yl)ethyl)-4-phenoxybenzamide]
The EC50 of the first is 1.7-fold lower: 173 nM for the first, 293 nM for the second. The first is the more potent here.

Molecule O=C(NCCc1c[nH]c2ccc(Cl)cc12)c1ccc(Cc2cccc(F)c2)cc1F [Cpd099, N-(2-(5-chloro-1H-indol-3-yl)ethyl)-2-fluoro-4-(3-fluorobenzyl)benzamide] has an EC50 of 27 nM.
